Counter-ions that a name gives are not always drawn.
Tested on: NQO1 specific enzyme activity in BEAS-2B cells (marker for NRF2 activation)
Assay: BEAS-2B NQO1 MTT Assay
Assay type: cell-based
Conditions: Homo sapiens, BEAS-2B, 48 h, NQO1 specific activity induction, 48 hours with compound
Method in brief: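 Following 48 h compound treatment at 37° C., 5% CO2, cells were lysed and MTT cocktail added. Product formation was followed kinetically at 570 nm for 30 min. Rate (Delta OD/min) against log concentration was fitted with 3 parameters to give pEC50 for induction of NQO1 specific activity.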

| Structure (SMILES) | EC50 [nM] |
| --- | --- |
| CCn1cc(CO[C@@H](c2ccc(C)c(CN3CC(C)Cc4ccncc4S3(=O)=O)c2)C(C)(C)C(=O)O)nn1 (stereo in doubt) [Example 73, (3S)-((1-ethyl-1H-1,2,3-triazol-4-yl)methoxy)-2,2-dimethyl-3-(4-methyl-3-(((R)-4-methyl-1,1-dioxido-4,5-dihydropyrido[4,3-f][1,2]thiazepin-2(3H)-yl)methyl)phenyl)propanoic acid] | 10 to 100 |
| CCn1cc(CO[C@H](c2ccc(C)c(CN3C[C@H](C)Cc4ccncc4S3(=O)=O)c2)C(C)(C)C(=O)O)nn1 [Example 66, (3R)-((1-ethyl-1H-1,2,3-triazol-4-yl)methoxy)-2,2-dimethyl-3-(4-methyl-3-(((R)-4-methyl-1,1-dioxido-4,5-dihydropyrido[4,3-f][1,2]thiazepin-2(3H)-yl)methyl)phenyl)propanoic acid] | 100 to 1000 |
| CCCn1cc(CO[C@H](c2ccc(C)c(CN3C[C@H](C)Cc4ccncc4S3(=O)=O)c2)C(C)(C)C(=O)O)nn1 [Example 67, (R)-2,2-dimethyl-3-(4-methyl-3-(((R)-4-methyl-1,1-dioxido-4,5-dihydropyrido[4,3-f][1,2]thiazepin-2(3H)-yl)methyl)phenyl)-3-((1-propyl-1H-1,2,3-triazol-4-yl)methoxy)propanoic acid] | 100 to 1000 |
| Cc1ccc(C(OCc2cn(CC3CCNCC3)nn2)C(C)(C)C(=O)O)cc1CN1C[C@@H](C)Oc2ccccc2S1(=O)=O (stereo partly drawn) [Example 53, 2,2-Dimethyl-3-(4-methyl-3-(((R)-4-methyl-1,1-dioxido-3,4-dihydro-2H-benzo[b][1,4,5]oxathiazepin-2-yl)methyl)phenyl)-3-((1-(piperidin-4-ylmethyl)-1H-1,2,3-triazol-4-yl)methoxy)propanoic Acid, Formic Acid Salt] | 100 to 1000 |
| Cc1ccc([C@H](OCc2cn(CCOCCn3cc(CO[C@@H](c4ccc(C)c(CN5C[C@@H](C)Oc6ccccc6S5(=O)=O)c4)C(C)(C)C(=O)O)nn3)nn2)C(C)(C)C(=O)O)cc1CN1C[C@@H](C)Oc2ccccc2S1(=O)=O (relative stereo) [Example 50, (R,rel-3S, rel-3′S)-3,3′-(((1,1′-(oxybis(ethane-2,1-diyl))bis(1H-1,2,3-triazole-4,1-diyl))bis(methylene))bis(oxy))bis(2,2-dimethyl-3-(4-methyl-3-(((R)-4-methyl-1,1-dioxido-3,4-dihydro-2H-benzo[b][1,4,5]oxathiazepin-2-yl)methyl)phenyl)propanoic acid)] | 10 to 100 |
| Cc1ccc(C(OCc2cn(Cc3cccc(Cn4cc(CCO)nn4)c3)nn2)C(C)(C)C(=O)O)cc1CN1C[C@@H](C)Oc2ccccc2S1(=O)=O (stereo partly drawn) [Example 40, 3-((1-(3-((4-(2-Hydroxyethyl)-1H-1,2,3-triazol-1-yl)methyl)benzyl)-1H-1,2,3-triazol-4-yl)methoxy)-2,2-dimethyl-3-(4-methyl-3-(((R)-4-methyl-1,1-dioxido-3,4-dihydro-2H-benzo[b][1,4,5]oxathiazepin-2-yl)methyl)phenyl)propanoic acid] | 100 to 1000 |
| CC[C@@H]1Cc2ccccc2S(=O)(=O)N(Cc2cc([C@H](OCc3cn(CC)nn3)C(C)(C)C(=O)O)ccc2C)C1 [Example 69, (3S)-((1-ethyl-1H-1,2,3-triazol-4-yl)methoxy)-2,2-dimethyl-3-(4-methyl-3-(((R)-4-ethyl-1,1-dioxido-4,5-dihydrobenzo[f][1,2]thiazepin-2(3H)-yl)methyl)phenyl)propanoic acid] | 10 to 100 |
| CC[C@@H]1CN(Cc2cc([C@H](OCc3cn(C4COC4)nn3)C(C)(C)C(=O)O)ccc2C)S(=O)(=O)c2ccccc2O1 [Example 105] | 1 to 10 |
| CC[C@@H]1CN(Cc2cc(C(OCc3cn(Cc4cccc(Cn5cc(CO)nn5)c4)nn3)C(C)(C)C(=O)O)ccc2C)S(=O)(=O)c2ccccc2O1 (stereo partly drawn) [Example 28, 3-(3-(((R)-4-ethyl-1,1-dioxido-3,4-dihydro-2H-benzo[b][1,4,5]oxathiazepin-2-yl)methyl)-4-methylphenyl)-3-((1-(3-((4-(hydroxymethyl)-1H-1,2,3-triazol-1-yl)methyl)benzyl)-1H-1,2,3-triazol-4-yl)methoxy)-2,2-dimethyl-propanoic acid] | 10 to 100 |
| C#CCOC(c1ccc(C)c(CN2C[C@@H](C)Oc3ccccc3S2(=O)=O)c1)C(C)(C)C(=O)O (stereo partly drawn) [Example 2, 2,2-Dimethyl-3-(4-methyl-3-(((R)-4-methyl-1,1-dioxido-3,4-dihydro-2H-benzo[b][1,4,5]oxathiazepin-2-yl)methyl)phenyl)-3-(prop-2-yn-1-yloxy)propanoic acid] | 100 to 1000 |
| CCn1cc(CO[C@H](c2ccc(C)c(CN3C[C@@H](C)Cc4ccncc4S3(=O)=O)c2)C(C)(C)C(=O)O)nn1 [Example 61, (3R)-((1-ethyl-1H-1,2,3-triazol-4-yl)methoxy)-2,2-dimethyl-3-(4-methyl-3-(((S)-4-methyl-1,1-dioxido-4,5-dihydropyrido[4,3-f][1,2]thiazepin-2(3H)-yl)methyl)phenyl)propanoic acid] | < 1 |
| CC[C@@H]1CN(Cc2cc(C(OCc3cn(CC)nn3)C(F)(F)C(=O)O)ccc2C)S(=O)(=O)c2ccccc2O1 (stereo partly drawn) [Example 60, 3-(3-(((R)-4-Ethyl-1,1-dioxido-3,4-dihydro-2H-benzo[b][1,4,5]oxathiazepin-2-yl)methyl)-4-methylphenyl)-3-((1-ethyl-1H-1,2,3-triazol-4-yl)methoxy)-2,2-difluoropropanoic acid] | 100 to 1000 |
| CC[C@@H]1CN(Cc2cc(C(OCc3cn(Cc4cccc(-c5ccc(C(=O)O)c(F)c5)c4)nn3)C(C)(C)C(=O)O)ccc2C)S(=O)(=O)c2ccccc2O1 (stereo partly drawn) [Example 24, 3′-((4-((2-Carboxy-1-(3-(((R)-4-ethyl-1,1-dioxido-3,4-dihydro-2H-benzo[b][1,4,5]oxathiazepin-2-yl)methyl)-4-methylphenyl)-2-methylpropoxy)methyl)-1H-1,2,3-triazol-1-yl)methyl)-3-fluoro-[1,1′-biphenyl]-4-carboxylic acid] | 10 to 100 |
| CC[C@@H]1CN(Cc2cc([C@@H](OCc3cn(C)nn3)C(C)(C)C(=O)O)ccc2C)Cc2nc(C)ccc2O1 [Example 110, (R)-3-(3-(((R)-2-Ethyl-7-methyl-2,3-dihydropyrido[2,3-f][1,4]oxazepin-4(5H)-yl)methyl)-4-methylphenyl)-2,2-dimethyl-3-((1-methyl-1H-1,2,3-triazol-4-yl)methoxy)propanoic acid trifluoroacetate] | 1 to 10 |
| CC[C@@H]1CN(Cc2cc([C@@H](OCc3cn(C)nn3)C(C)(C)C(=O)O)ccc2C)Cc2ncccc2O1 [Example 108, (R)-3-(3-(((R)-2-Ethyl-2,3-dihydropyrido[2,3-f][1,4]oxazepin-4(5H)-yl)methyl)-4-methylphenyl)-2,2-dimethyl-3-((1-methyl-1H-1,2,3-triazol-4-yl)methoxy)propanoic acid Hydrochloride] | 10 to 100 |
| Cc1ccc(C(OCc2cn(CC3CCN(C(=O)C4CCCCC4)CC3)nn2)C(C)(C)C(=O)O)cc1CN1C[C@@H](C)Oc2ccccc2S1(=O)=O (stereo partly drawn) [Example 30, 3-((1-((1-(Cyclohexanecarbonyl)piperidin-4-yl)methyl)-1H-1,2,3-triazol-4-yl)methoxy)-2,2-dimethyl-3-(4-methyl-3-(((R)-4-methyl-1,1-dioxido-3,4-dihydro-2H-benzo[b][1,4,5]oxathiazepin-2-yl)methyl)phenyl)propanoic acid] | 1 to 10 |
| Cc1ccc(C(OCc2cn(Cc3cccc(Br)c3)nn2)C(C)(C)C(=O)O)cc1CN1C[C@@H](C)Oc2ccccc2S1(=O)=O (stereo partly drawn) [Example 1, 3-((1-(3-Bromobenzyl)-1H-1,2,3-triazol-4-yl)methoxy)-2,2-dimethyl-3-(4-methyl-3-(((R)-4-methyl-1,1-dioxido-3,4-dihydro-2H-benzo[b][1,4,5]oxathiazepin-2-yl)methyl)phenyl)propanoic acid] | < 1 |
| CCCn1cc(COC(c2ccc(C)c(CN3C[C@@H](C)Oc4ccccc4S3(=O)=O)c2)C(C)(C)C(=O)O)nn1 (stereo partly drawn) [Example 8, 2,2-Dimethyl-3-(4-methyl-3-(((R)-4-methyl-1,1-dioxido-3,4-dihydro-2H-benzo[b][1,4,5]oxathiazepin-2-yl)methyl)phenyl)-3-((1-propyl-1H-1,2,3-triazol-4-yl)methoxy)propanoic acid] | 1 to 10 |
| CCCn1cc(CO[C@H](c2ccc(C)c(CN3C[C@H](C)Cc4ccc(C(F)(F)F)cc4S3(=O)=O)c2)C(C)(C)C(=O)O)nn1 [Example 79, (R)-2,2-dimethyl-3-(4-methyl-3-(((R)-4-methyl-1,1-dioxido-8-(trifluoromethyl)-4,5-dihydrobenzo[f][1,2]thiazepin-2(3H)-yl)methyl)phenyl)-3-((1-propyl-1H-1,2,3-triazol-4-yl)methoxy)propanoic acid] | 1 to 10 |
| CCCC(=O)N1CCC(Cn2cc(COC(c3ccc(C)c(CN4C[C@@H](C)Oc5ccccc5S4(=O)=O)c3)C(C)(C)C(=O)O)nn2)CC1 (stereo partly drawn) [Example 34, 3-((1-((1-Butyrylpiperidin-4-yl)methyl)-1H-1,2,3-triazol-4-yl)methoxy)-2,2-dimethyl-3-(4-methyl-3-(((R)-4-methyl-1,1-dioxido-3,4-dihydro-2H-benzo[b][1,4,5]oxathiazepin-2-yl)methyl)phenyl)propanoic acid] | 10 to 100 |
| CCn1cc(COC(c2ccc(C)c(CN(C3CCCCC3)S(=O)(=O)c3cccc(OC)c3)c2)C(C)(C)C(=O)O)nn1 (centres unmarked) [Example 96, 3-(3-(((N-cyclohexyl-3-methoxyphenyl)sulfamido)methyl)-4-methylphenyl)-3-((1-ethyl-1H-1,2,3-triazol-4-yl)methoxy)-2,2-dimethylpropanoic acid] | 100 to 1000 |
| CC[C@@H]1CN(Cc2cc([C@H](OCc3cn(C)nn3)C(C)(C)C(=O)O)ccc2C)Cc2ncccc2O1 [Example 111, (S)-methyl-3-(3-(((R)-2-ethyl-2,3-dihydropyrido[2,3-f][1,4]oxazepin-4(5H)-yl)methyl)-4-methyl-phenyl)-2,2-dimethyl-3-((1-methyl-1H-1,2,3-triazol-4-yl)-methoxy)-propanoic acid] | 100 to 1000 |

Same assay, conditions: NQO1 specific activity induction, 48 hours with compound

| Structure (SMILES) | EC50 [nM] |
| --- | --- |
| Cc1ccc(C(OCc2cn(CC(C)C)nn2)C(C)(C)C(=O)O)cc1CN1C[C@@H](C)Oc2ccccc2S1(=O)=O (single isomer, unassigned) [Example 13] | 1 to 10 |

— patent publication US12091409B2, “Ether linked triazoles as NRF2 activators” (ASTEX THERAPEUTICS LIMITED, priority 2016, dated 2024)
